Data taken from US20050137247A1, “Methods and compositions for treatment of hypertension” (The Brigham and Women's Hospital, Inc., priority 2003, published 2005).
Values joined by “and” are separate entries in the source; they are usually repeats but may differ in a detail not shown here. Equal values may be shown once. “Also recorded” adds a separate entry of the source.

Columns and labels:
Type in all cases: in vivo, human
[1] = system: male patients with untreated, uncomplicated, essential hypertension; test: Finger arterial blood pressure recordings by Finometer; settings: repeated melatonin; supine resting or standing, daytime
Method: (§1) Measurements. […] Ambulatory blood pressure was measured every half hour for 32 hours, from 8 hours before bedtime until bedtime the next day. In addition, noninvasive finger arterial blood pressure recordings were performed by Finometer (TNO Biomedical Instruments, Amsterdam, The Netherlands) (Bos, W. J., et al., Circulation, 94 (1996) 1870-5), to estimate changes in total peripheral resistance, stroke volume, and cardiac output, as possible explanations for changes in blood pressure. […] During all ambulatory blood pressure recordings, the subjects reported sleep details in a sleep-wake diary and wore an Actiwatch (Cambridge Neurotechnology Ltd, Cambridge, UK), a piezo-electric accelerometer, on the non-dominant wrist to assess motor activity at 1 min intervals for the estimation of sleep quality.
(§2) Data analysis. Sleep blood pressure was defined as the mean blood pressure from the time of falling asleep until the time of awakening, as determined by actigraphy. Awake blood pressure was defined as the mean blood pressure during the remaining portion of the day. Continuous Finometer data were analyzed by Beatscope software (TNO-Biomedical Instruments, Amsterdam, The Netherlands) (Bos, W. J., et al., Circulation, 94 (1996) 1870-5). Periods of 5 min with a stable blood pressure signal were used for both supine and standing periods. To accurately determine the sleeping period and estimate sleep quality, automatic sleep/wake scoring was performed with Actiwatch Sleep Analysis 98 (Cambridge Neurotechnology Ltd, V4.15), with sensitivity set to medium, on the actigraphy data between “bed time” and “get up time” derived from the sleep-wake diaries. Three sleep variables were objectively computed by this analysis. ‘Sleep latency’ was the calculated time between bed time and sleep onset. The time asleep was termed actual sleep time. The percentage of time asleep while in bed was defined as ‘sleep efficiency’.

[2] = system: male patients with untreated, uncomplicated, essential hypertension; test: 24-hour rhythm analysis of ambulatory blood pressure (peaked and skewed cosine fit)
From the text: Statistics. Because not all variables were normally distributed (Shapiro's-Wilk's W Test), non-parametric tests were used as required. Consequently, Altman's crossover analysis methods were applied (Altman, D. G., Crossover trials, Practical statistics for medical research, Vol. 1, Chapman and Hall. London, 1991, pp. 467-471). […] Student's t-tests for independent variables or Mann-Whitney U tests were applied for all dependent variables to test a carryover effect for (1) single treatment periods, and (2) repeated treatment periods. Correlation between a change in sleep quality and a change in sleep blood pressure was tested by linear correlation. The 24-hour rhythm in blood pressure was fitted by standard cyclic regression models: cosine, cosine with second harmonic, skewed cosine, peaked cosine, and skewed and peaked cosine analysis (Batschelet, E., Circular Statistics in Biology, Academic Press, 1981, 371 pp.). Of these, the latter best fitted the data as indicated by the Akaike's Information Criterion (AIC) (de Leeuw, J., introduction to Akaike (1973) Information Theory and an Extension of the Maximum Likelihood Principle. In S. Kotz and N. L. Johnson (Eds.), Breakthroughs in statistics, Vol. 1, Springer-Verlag. London, 1992 pp. 599-609) and was used for subsequent analysis. Two-tailed p values lower than 0.05 were considered to indicate statistical significance. All group data are presented as means±standard deviation (SD) or means including 95% confidence interval (95% CI).
24-Hour rhythm analysis of ambulatory blood pressure. For 24-hour rhythm analysis of ambulatory blood pressure, the peaked and skewed cosine analysis was used. […] The decrease in minimum and mean systolic blood pressure was not significant (−6±15 mm Hg; p=0. 13 and −5±12 mm Hg; p=0. 19).

[3] = system: male patients with untreated, uncomplicated, essential hypertension; test: 24-hour ambulatory blood pressure and heart rate, randomized double-blind placebo-controlled crossover trial
From the text: Patients. Sixteen male patients with untreated, uncomplicated, essential hypertension were included in the study. Women were excluded to prevent possible interference of the menstrual cycle and oral anticonceptives on cardiovascular and circadian regulation. Patients were considered hypertensive, with a daytime ambulatory blood pressure between 140-179 mm Hg systolic or between 90-109 mm Hg diastolic. Secondary hypertension was excluded by medical history and routine laboratory tests. Five patients had never received antihypertensive medication; in the others antihypertensive treatment was stopped at least three weeks before participation. Their mean (±SD) age was 55±8 (range 36-68) years and mean BMI was 26.8±.1.7 (23.3-29.1) kg/m^2. Mean self reported habitual waking and bedtimes were 06:38 a.m. ±55 minutes and 11:29 p.m. ±26 minutes, respectively. […] Five days before and during ambulatory blood pressure measurements, subjects maintained fixed sleep-wake cycles according to their habitual sleep-wake cycle. All procedures were carried out with adequate understanding and written consent of the subjects and were approved by the Ethics Committee of the Academic Medical Center of the University of Amsterdam.
Study Design. […] On assessment days, patients abstained from heavy physical exercise, daytime napping, alcohol and nicotine consumption and coffee was restricted to two consumptions per day during breakfast or lunch. Meal times were restricted to the following periods: breakfast 1 to 1.5 hours after waking; lunch 11 to 10 hours before bedtime; and dinner 5 to 4 hours before bedtime.
as §1, §2
Statistics. Because not all variables were normally distributed (Shapiro's-Wilk's W Test), non-parametric tests were used as required. Consequently, Altman's crossover analysis methods were applied (Altman, D. G., Crossover trials, Practical statistics for medical research, Vol. 1, Chapman and Hall. London, 1991, pp. 467-471). […]

[4] = system: male patients with untreated, uncomplicated, essential hypertension; test: Actigraphic estimates of sleep quality (Actiwatch)
Method: as §1, §2

[5] = 3 weeks melatonin vs 3 weeks placebo
[6] = 3 weeks melatonin vs 3 weeks placebo, not significant
[7] = repeated melatonin vs placebo, no effect
[8] = acute (single) melatonin 2.5 mg vs single placebo
[9] = after 3 weeks melatonin 2.5 mg orally 1 hour before bedtime, mean ± SD
[10] = individual patient 14, relative to placebo level (FIG. 2)

For `COc1ccc2[nH]cc(CCNC(C)=O)c2c1` [Melatonin, N-acetyl-5-methoxy-tryptamine], the “effect on blood pressure (Finometer)” value [1] was “no elect”, the “effect on cardiac output (Finometer)” value [1] was “no elect” and the “effect on heart rate (Finometer)” value [1] was “no elect”. For the same molecule, the “effect on stroke volume (Finometer)” value [1] was “no elect”, the “effect on total peripheral resistance (Finometer)” value [1] was “no elect” and the “decrease of calculated mean diastolic blood pressure” value [2, 5] was 4±6 mm Hg. The “decrease of calculated minimum diastolic blood pressure” value [2, 5] was 5±7 mm Hg, the “increase of day-night rhythm amplitude of diastolic blood pressure” value [2, 5] was 25% and the “increase of day-night rhythm amplitude of systolic blood pressure” value [2, 5] was 15%. The “change in mean systolic blood pressure” value [2, 6] was −5±12 mm Hg, the “change in minimum systolic blood pressure” value [2, 6] was −6±15 mm Hg and the “effect on time of the minimum blood pressure” value ([2]; repeated melatonin vs placebo) was “no effects”. The “change in maximum diastolic blood pressure” value [2, 7] was −1±5 mm Hg, the “change in maximum systolic blood pressure” value [2, 7] was −2±12 mm Hg and the “change in awake diastolic blood pressure” value [3, 6] was −1 mm Hg. The “change in awake systolic blood pressure” value [3, 6] was −5 mm Hg, the “effect on diastolic blood pressure awake” value [3, 8] was “no effect” and the “effect on diastolic blood pressure whilst asleep” value [3, 8] was “no effect”. The “effect on systolic blood pressure awake” value [3, 8] was “no effect”, the “effect on systolic blood pressure whilst asleep” value [3, 8] was “no effect” and the “Sleeping Period Distolic BP” value [3, 9] was 82.4 ± 4.0. For the same molecule, the “Sleeping Period Heart Rate” value [3, 9] was 61.1 ± 6.5, the “Sleeping Period Systolic BP” value [3, 9] was 130.6 ± 10.0 and the “Waking Period Distolic BP” value [3, 9] was 95.4 ± 7.7. For the same molecule, the “Waking Period Heart Rate” value [3, 9] was 71.2 ± 7.8, the “Waking Period Systolic BP” value [3, 9] was 147.6 ± 12.3 and the “effect of repeated melatonin on waking diastolic blood pressure, patient 14” value [3, 10] was −27 mm Hg. For the same molecule, the “effect of repeated melatonin on waking systolic blood pressure, patient 14” value [3, 10] was −53 mm Hg, the “reduction of sleep diastolic blood pressure” value ([3]; repeated (3 weeks daily) 2.5 mg melatonin 1 hour before bedtime vs 3 weeks placebo) was 4±6 mm Hg and 4 mm Hg and the “effect on heart rate” value ([3]; repeated (3 weeks daily) 2.5 mg melatonin vs placebo) was “without a change; also recorded: did not affect”. For the same molecule, the “effect on blood pressure” value ([3]; single dose of melatonin 2.5 mg) was “no effect”, the “effect on actual sleep time” value ([4]; acute melatonin application) was “no significant effect” and the “effect on sleep latency” value ([4]; acute melatonin application) was “no significant effect”. The sleep latency ([4]; after repeated melatonin (placebo 33 minutes)) was 22 min and the actual sleep time ([4]; after repeated melatonin (placebo 5.6 hours)) was 6.1 h.
